Laboratory results taken from patent publication US20230183237A1, “COMPETITIVE AND NONCOMPETITIVE INHIBITORS OF THE MUSCARINIC ACETYLCHOLINE RECEPTOR M5” (Vanderbilt University, priority 2020, published 2023).
Read-outs that look alike come from different tables or passages of the source.

Biological target: T1, hM5 (Homo sapiens, UniProt P08912)
T1 construct: expressed in transfected cells
T1 sequence (P08912 1-532): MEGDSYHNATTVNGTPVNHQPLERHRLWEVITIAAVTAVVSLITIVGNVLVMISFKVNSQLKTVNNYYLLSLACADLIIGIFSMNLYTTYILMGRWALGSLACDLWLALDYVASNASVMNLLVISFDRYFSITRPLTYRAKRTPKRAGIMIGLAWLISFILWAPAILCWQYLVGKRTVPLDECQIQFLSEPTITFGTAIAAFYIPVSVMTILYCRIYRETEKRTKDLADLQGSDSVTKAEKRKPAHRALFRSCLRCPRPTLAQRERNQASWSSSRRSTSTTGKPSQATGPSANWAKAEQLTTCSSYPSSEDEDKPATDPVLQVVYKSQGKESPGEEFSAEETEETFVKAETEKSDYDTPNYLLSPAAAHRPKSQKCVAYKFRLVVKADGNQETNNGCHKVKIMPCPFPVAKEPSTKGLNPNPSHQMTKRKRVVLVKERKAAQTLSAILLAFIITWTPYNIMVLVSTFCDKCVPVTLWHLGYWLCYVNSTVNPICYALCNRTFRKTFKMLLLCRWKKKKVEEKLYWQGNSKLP
Assay: Calcium mobilization concentration-response (IC50 vs EC80 acetylcholine), CHO hM5
Format: cell-based
Conditions: CELL LINE hM5, read-out: IC50
How it was run: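 IC50 values derive from percent maximal acetylcholine response after an EC80 ACh addition, measured as kinetic calcium fluorescence (static ratio, max−min). Test compounds were added 140 s before agonist. Cells: stable hM5-CHO in HEPES-buffered HBSS with 2.5 mM probenecid, pH 7.4; ≥3 independent triplicate determinations.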

[1] = calcium mobilization, EC80 acetylcholine addition

IC50 (vs EC80 acetylcholine)	IC50 [1]	SMILES
150 nM	–	CCc1cc2ncnn2cc1C1CCN(S(=O)(=O)c2cnn3ccccc23)CC1 [Compound 509, 7-ethyl-6-(1-(pyrazolo[1,5-a]pyridin-3-ylsulfonyl)piperidin-4-yl)-[1,2,4]triazolo[1,5-a]pyridine]
61 nM	–	Cn1ncc(S(=O)(=O)N2CCC(c3cn4ncnc4cc3C(F)F)CC2)c1C#N [Compound 482, 4-((4-(7-(difluoromethyl)-[1,2,4]triazolo[1,5-a]pyridin-6-yl)piperidin-1-yl)sulfonyl)-1-methyl-1H-pyrazole-5-carbonitrile]
595 nM	–	[2H]C1([2H])CC(c2cn3ncnc3cc2F)CC([2H])([2H])N1S(=O)(=O)c1cc(C)ns1 [Compound 528, 5-((4-(7-fluoro-[1,2,4]triazolo[1,5-a]pyridin-6-yl)piperidin-1-yl-2,2,6,6-d4)sulfonyl)-3-methylisothiazole]
–	> 10000 nM	Cc1cc2ncnn2cc1C1CCN(S(=O)(=O)c2ccc3c(c2)C(C)(C)CO3)CC1 [Compound 74, 6-(1-((3,3-dimethyl-2,3-dihydrobenzofuran-5-yl)sulfonyl)piperidin-4-yl)-7-methyl-[1,2,4]triazolo[1,5-a]pyridine]
–	9.1 nM	Cc1cc2ncnn2cc1C1CCN(S(=O)(=O)c2cnn(C)c2C(F)F)CC1 [Compound 156, 6-(1-((5-(difluoromethyl)-1-methyl-1H-pyrazol-4-yl)sulfonyl)piperidin-4-yl)-7-methyl-[1,2,4]triazolo[1,5-a]pyridine]
–	> 10000 nM	Cc1cc2ncnn2cc1C1CCN(S(=O)(=O)c2ccsc2)CC1 [Compound 125, 7-methyl-6-(1-(thiophen-3-ylsulfonyl)piperidin-4-yl)-[1,2,4]triazolo[1,5-a]pyridine]
–	> 10000 nM	Cc1cc2nccn2cc1C1CCN(S(=O)(=O)c2ccc(Cl)nc2)CC1 [Compound 70, 6-(1-((6-chloropyridin-3-yl)sulfonyl)piperidin-4-yl)-7-methylimidazo[1,2-a]pyridine]
–	> 10000 nM	[2H]C1([2H])Oc2ccc(S(=O)(=O)N3CCC(c4cn5ncnc5cc4OC)CC3)cc2C1([2H])[2H] [Compound 92, 6-(1-((2,3-dihydrobenzofuran-5-yl-2,2,3,3-d4)sulfonyl)piperidin-4-yl)-7-methoxy-[1,2,4]triazolo[1,5-a]pyridine]
34 nM	–	O=S(=O)(c1cnc2sccn12)N1CCC(c2cn3ncnc3cc2C(F)F)CC1 [Compound 515, 5-((4-(7-(difluoromethyl)-[1,2,4]triazolo[1,5-a]pyridin-6-yl)piperidin-1-yl)sulfonyl)imidazo[2,1-b]thiazole]
126 nM	–	Cc1cc(S(=O)(=O)N2CCC(c3cn4ncnc4cc3CCl)CC2)sn1 [Compound 606, 5-((4-(7-(chloromethyl)-[1,2,4]triazolo[1,5-a]pyridin-6-yl)piperidin-1-yl)sulfonyl)-3-methylisothiazole]
–	> 10000 nM	O=S(=O)(c1ccc2c(c1)CCO2)N1CCC(c2cc(-c3ccco3)n[nH]2)CC1 [Compound 4, 1-((2,3-dihydrobenzofuran-5-yl)sulfonyl)-4-(3-(furan-2-yl)-1H-pyrazol-5-yl)piperidine]
–	> 10000 nM	Cc1nc2cc(C)c(C3CCN(S(=O)(=O)c4ccc5c(c4)CCO5)CC3)cn2n1 [Compound 76, 6-(1-((2,3-dihydrobenzofuran-5-yl)sulfonyl)piperidin-4-yl)-2,7-dimethyl-[1,2,4]triazolo[1,5-a]pyridine]
94 nM	–	Cc1cc2ccnn2cc1C1CCN(S(=O)(=O)c2cnn(C)c2Cl)CC1 [Compound 470, 6-(1-((5-chloro-1-methyl-1H-pyrazol-4-yl)sulfonyl)piperidin-4-yl)-5-methylpyrazolo[1,5-a]pyridine]
–	22 nM	Cc1ncc(S(=O)(=O)N2CCC(c3cn4ncnc4cc3Cl)CC2)n1C [Compound 294, 7-chloro-6-(1-((1,2-dimethyl-1H-imidazol-5-yl)sulfonyl)piperidin-4-yl)-[1,2,4]triazolo[1,5-a]pyridine]
–	2600 nM	O=S(=O)(c1ccc2ncsc2c1)N1CCC(c2cc3cc[nH]c3nn2)CC1 [Compound 22, 6-((4-(7H-pyrrolo[2,3-c]pyridazin-3-yl)piperidin-1-yl)sulfonyl)benzo[d]thiazole]
–	> 10000 nM	O=S(=O)(c1ccc2ncsc2c1)N1CCC(c2cc3cc[nH]c3cn2)CC1 [Compound 25, 6-((4-(1H-pyrrolo[2,3-c]pyridin-5-yl)piperidin-1-yl)sulfonyl)benzo[d]thiazole]
–	> 10000 nM	Cc1nc2[nH]ccc2nc1C1CCN(S(=O)(=O)c2ccc3c(c2)CCO3)CC1 [Compound 15, 2-(1-((2,3-dihydrobenzofuran-5-yl)sulfonyl)piperidin-4-yl)-3-methyl-5H-pyrrolo[2,3-b]pyrazine]

IC50 (vs EC80 acetylcholine)	IC50 [1]	SMILES
–	> 10000 nM	Cc1c(S(=O)(=O)N2CCC(c3ccncc3)CC2)cnn1C [Compound 365, 4-(1-((1,5-dimethyl-1H-pyrazol-4-yl)sulfonyl)piperidin-4-yl)pyridine]
–	5500 nM	Cc1cc2nccn2nc1C1CCN(S(=O)(=O)c2cc3c(cc2F)OCC3)CC1 [Compound 52, 6-(1-((6-fluoro-2,3-dihydrobenzofuran-5-yl)sulfonyl)piperidin-4-yl)-7-methylimidazo[1,2-b]pyridazine]
147 nM	–	COc1c(S(=O)(=O)N2CCC(F)(c3cn4ncnc4cc3C)CC2)cnn1C [Compound 586, 6-(4-fluoro-1-((5-methoxy-1-methyl-1H-pyrazol-4-yl)sulfonyl)piperidin-4-yl)-7-methyl-[1,2,4]triazolo[1,5-a]pyridine]
–	5600 nM	O=S(=O)(c1ccc2c(c1)CCO2)N1CCC(c2nnc(NCc3ccccc3)cc2C(F)(F)F)CC1 [Compound 44]
186 nM	–	O=S(=O)(c1cnc2sccn12)N1CCC(c2cn3ncnc3cc2F)CC1 [Compound 525, 5-((4-(7-fluoro-[1,2,4]triazolo[1,5-a]pyridin-6-yl)piperidin-1-yl)sulfonyl)imidazo[2,1-b]thiazole]
–	> 10000 nM	Cc1cc2ncnn2cc1C1CCN(S(=O)(=O)c2cnc3n2CCC3)CC1 [Compound 219, 6-(1-((6,7-dihydro-5H-pyrrolo[1,2-a]imidazol-3-yl)sulfonyl)piperidin-4-yl)-7-methyl-[1,2,4]triazolo[1,5-a]pyridine]
–	> 10000 nM	Cc1nc2cc(C)c(C3CCN(S(=O)(=O)c4cc5c(cc4F)OCC5)CC3)cn2n1 [Compound 77, 6-(1-((6-fluoro-2,3-dihydrobenzofuran-5-yl)sulfonyl)piperidin-4-yl)-2,7-dimethyl-[1,2,4]triazolo[1,5-a]pyridine]
–	> 10000 nM	Cc1cc2nccn2cc1C1CCN(S(=O)(=O)c2cn(C)nc2C)CC1 [Compound 71, 6-(1-((1,3-dimethyl-1H-pyrazol-4-yl)sulfonyl)piperidin-4-yl)-7-methylimidazo[1,2-a]pyridine]
25 nM	–	Cn1cc(S(=O)(=O)N2CCC(c3cn4ncnc4cc3Cl)CC2)nn1 [Compound 557, 7-chloro-6-(1-((1-methyl-1H-1,2,3-triazol-4-yl)sulfonyl)piperidin-4-yl)-[1,2,4]triazolo[1,5-a]pyridine]
–	974 nM	Cc1cc2ncnn2nc1C1=CCN(S(=O)(=O)c2cnn(C)c2C)CC1 [Compound 169, 6-(1-((1,5-dimethyl-1H-pyrazol-4-yl)sulfonyl)-1,2,3,6-tetrahydropyridin-4-yl)-7-methyl-[1,2,4]triazolo[1,5-b]pyridazine]
1590 nM	–	O=S(=O)(c1cnc(Cl)s1)N1CCC(c2cn3ncnc3cc2C(F)(F)F)CC1 [Compound 519, 2-chloro-5-((4-(7-(trifluoromethyl)-[1,2,4]triazolo[1,5-a]pyridin-6-yl)piperidin-1-yl)sulfonyl)thiazole]
–	> 10000 nM	O=S(=O)(c1ccc2ncccc2c1)N1CCC(c2cc3[nH]ncc3cn2)CC1 [Compound 20, 6-((4-(1H-pyrazolo[4,3-c]pyridin-6-yl)piperidin-1-yl)sulfonyl)quinoline]
–	9200 nM	Cc1cc2c(cc1S(=O)(=O)N1CCC(c3cc(C)c4ncnn4c3)CC1)C(C)CO2 (stereo not shown) [Compound 86, 6-(1-((3,6-dimethyl-2,3-dihydrobenzofuran-5-yl)sulfonyl)piperidin-4-yl)-8-methyl-[1,2,4]triazolo[1,5-a]pyridine]
–	> 10000 nM	CCn1ncc(S(=O)(=O)N2CCC(c3cn4ncnc4cc3C)CC2)c1C1CC1 [Compound 133, 6-(1-((5-cyclopropyl-1-ethyl-1H-pyrazol-4-yl)sulfonyl)piperidin-4-yl)-7-methyl-[1,2,4]triazolo[1,5-a]pyridine]
–	37 nM	Cc1c(C2=CCN(S(=O)(=O)c3cnn(C)c3C)CC2)cn2ncnc2c1Cl [Compound 380, 8-chloro-6-(1-((1,5-dimethyl-1H-pyrazol-4-yl)sulfonyl)-1,2,3,6-tetrahydropyridin-4-yl)-7-methyl-[1,2,4]triazolo[1,5-a]pyridine]
–	12 nM	O=S(=O)(c1cnc2n1CCCC2)N1CCC(c2cn3ncnc3cc2Cl)CC1 [Compound 343]
69 nM	–	Cc1cc2ncnn2cc1C1(F)CCN(S(=O)(=O)c2cnn3c2OCCC3)CC1 [Compound 421, 3-((4-fluoro-4-(7-methyl-[1,2,4]triazolo[1,5-a]pyridin-6-yl)piperidin-1-yl)sulfonyl)-6,7-dihydro-5H-pyrazolo[5,1-b][1,3]oxazine]
